MIC and LD data for 21 molecules are collected here from ChEMBL document CHEMBL5321224, “Antimicrobial peptides: Structure, mechanism, and modification” (2023).

Active and inactive are the calls of the source. The calls are words filed in the database; no cut-off is given here. Non-standard residues stand in square brackets, D forms with d. Residues, ends and D or L forms follow the SMILES beside them. βAla = NCCC(=O)O

What all share (type): functional
The test system of experiment [1] is Pseudomonas aeruginosa. The experiment can be described thus: Antimicrobial activity against Pseudomonas aeruginosa assessed as reduction of microbial growth incubated for 18 to 24 hrs by microdilution method. As to conditions: time 18-24 hrs.
Experiment [2] relates to Staphylococcus aureus. The experiment can be described thus: Antimicrobial activity against Staphylococcus aureus assessed as reduction of microbial growth incubated for 18 to 24 hrs by microdilution method. As to conditions: time 18-24 hrs.
In experiment [3] the test system is Escherichia coli. Kind of experiment: Antimicrobial activity against Escherichia coli assessed as reduction of microbial growth incubated for 18 to 24 hrs by microdilution method. As to conditions: time 18-24 hrs.
Experiment [4] concerns Pseudomonas aeruginosa. The experiment can be described thus: Antimicrobial activity against Pseudomonas aeruginosa.
For experiment [5], the system named is Escherichia coli. The experiment can be described thus: Antimicrobial activity against Escherichia coli.
Experiment [6] relates to Staphylococcus aureus. The experiment can be described thus: Antimicrobial activity against Staphylococcus aureus.
In experiment [7] the test system is Staphylococcus aureus. The experiment can be described thus: Antimicrobial activity against Staphylococcus aureus assessed as reduction of microbial growth incubated overnight.
Experiment [8] deals with Pseudomonas aeruginosa. Kind of experiment: Antimicrobial activity against Pseudomonas aeruginosa assessed as reduction of microbial growth incubated overnight.
Experiment [9] has as its system Escherichia coli. Kind of experiment: Antimicrobial activity against Escherichia coli assessed as reduction of microbial growth incubated overnight.
For experiment [10], the system named is Escherichia coli. Kind of experiment: Antimicrobial activity against Escherichia coli assessed as reduction of microbial growth incubated for 6 to 9 hr by macrodilution method. The following applies: time 6-9 hrs.
Experiment [11] concerns Staphylococcus aureus. Kind of experiment: Antimicrobial activity against Staphylococcus aureus assessed as reduction of microbial growth incubated for 6 to 9 hr by macrodilution method. As to conditions: time 6-9 hrs.
Experiment [12] concerns Pseudomonas aeruginosa. The experiment can be described thus: Antimicrobial activity against Pseudomonas aeruginosa assessed as reduction of microbial growth incubated for 6 to 9 hr by macrodilution method. As to conditions: time 6-9 hrs.
The subject of experiment [13] is Escherichia coli. The experiment can be described thus: Antimicrobial activity against Escherichia coli assessed as reduction of microbial growth incubated for 24 hrs.
Experiment [14] has as its system Staphylococcus aureus. The experiment can be described thus: Antimicrobial activity against Staphylococcus aureus assessed as reduction of microbial growth incubated for 24 hrs.
Experiment [15] deals with Pseudomonas aeruginosa. Kind of experiment: Antimicrobial activity against Pseudomonas aeruginosa assessed as reduction of microbial growth incubated for 24 hrs.
In experiment [16] the test system is Staphylococcus aureus. The experiment can be described thus: Antimicrobial activity against Staphylococcus aureus assessed as reduction of microbial growth.
The test system of experiment [17] is Pseudomonas aeruginosa. Kind of experiment: Antimicrobial activity against Pseudomonas aeruginosa assessed as reduction of microbial growth.
Experiment [18] deals with Escherichia coli. The experiment can be described thus: Antimicrobial activity against Escherichia coli assessed as reduction of microbial growth.

For the molecule H-KKKKKKKKKKGIGKFLHSAKKFGKAFVGEIMNS-OH, the values for the MIC in [1], in experiment [2] and in experiment [3] were 6.25 µg/mL, 12.5 µg/mL and 6.25 µg/mL, respectively.

Regarding H-KWKLFKKGIGAVLKV-OH, the LD was 15 µM in experiment [4], 4 µM in [5] and 29 µM in experiment [6].

Take `CC[C@H](C)[C@H](NC(=O)CNC(=O)[C@@H]1CCCN1C(=O)CNC(=O)[C@H](C)NC(=O)[C@H](CCCCN)NC(=O)[C@@H](NC(=O)[C@@H](NC(=O)CNC(=O)[C@H](CC(=O)O)NC(=O)[C@H](CCCNC(=N)N)NC(=O)[C@@H](NC(=O)[C@H](CC(N)=O)NC(=O)[C@H](CCC(N)=O)NC(=O)CNC(=O)[C@@H](NC(=O)[C@H](CCCCN)NC(=O)[C@H](CCC(=O)O)NC(=O)[C@@H](NC(=O)[C@H](CCCCN)NC(=O)[C@H](CCCCN)NC(=O)[C@H](Cc1ccccc1)NC(=O)[C@H](CC(C)C)NC(=O)[C@H](CCCCN)NC(=O)[C@H](Cc1c[nH]c2ccccc12)NC(=O)[C@@H](N)CCCCN)[C@@H](C)CC)C(C)C)[C@@H](C)CC)[C@@H](C)CC)[C@@H](C)CC)C(=O)NCC(=O)N[C@@H](C)C(=O)N[C@H](C(=O)N[C@@H](CC(C)C)C(=O)N[C@@H](CCCCN)C(=O)N[C@H](C(=O)N[C@@H](CC(C)C)C(=O)N[C@H](C(=O)N[C@H](C(=O)NCC(=O)N[C@@H](CC(C)C)C(=O)O)[C@@H](C)O)[C@@H](C)O)C(C)C)C(C)C`: the LD in experiment [7] turned out to be 6 µM; in [8] it was 1 µM; in [9], 0.3 µM.

With Ac-GIGKFLHAAKKFAKAFVAEIMNS-NH2, the MIC in experiment [10] is 25 µg/mL; in experiment [11], 25 µg/mL; in experiment [12] it was > 100 µg/mL.

Turning to `CC[C@H](C)[C@H](NC(=O)CN)C(=O)NCC(=O)N[C@@H](C)C(=O)N[C@H](C(=O)N[C@@H](CC(C)C)C(=O)N[C@@H](CCCCN)C(=O)N[C@H](C(=O)N[C@@H](CC(C)C)C(=O)N[C@H](C(=O)N[C@H](C(=O)NCC(=O)N[C@@H](CC(C)C)C(=O)N[C@@H](CCCCN)C(=O)N[C@@H](Cc1c[nH]c2ccccc12)C(=O)N[C@@H](CCCCN)C(=O)N[C@@H](CC(C)C)C(=O)N[C@@H](Cc1ccccc1)C(=O)N[C@@H](CCCCN)C(=O)N[C@@H](CCCCN)C(=O)N[C@H](C(=O)N[C@@H](CCC(=O)O)C(=O)N[C@@H](CCCCN)C(=O)N[C@H](C(=O)NCC(=O)N[C@@H](CCC(N)=O)C(=O)O)C(C)C)[C@@H](C)CC)[C@@H](C)O)[C@@H](C)O)C(C)C)C(C)C`, the LD in experiment [7] stood at 5 µM; in [8], 5 µM; in experiment [9], 1 µM.

Take `CC[C@H](C)[C@H](NC(=O)[C@H](CCCCN)NC(=O)[C@H](CCCCN)NC(=O)[C@H](Cc1ccccc1)NC(=O)[C@H](CC(C)C)NC(=O)[C@H](CCCCN)NC(=O)[C@H](Cc1c[nH]c2ccccc12)NC(=O)[C@@H](N)CCCCN)C(=O)N[C@@H](CCC(=O)O)C(=O)N[C@@H](CCCCN)C(=O)N[C@H](C(=O)NCC(=O)N[C@@H](CCC(N)=O)C(=O)NCC(=O)N[C@@H](C(=O)NCC(=O)N[C@@H](C)C(=O)N[C@H](C(=O)N[C@@H](CC(C)C)C(=O)N[C@@H](CCCCN)C(=O)N[C@H](C(=O)N[C@@H](CC(C)C)C(=O)N[C@H](C(=O)N[C@H](C(=O)NCC(=O)N[C@@H](CC(C)C)C(=O)O)[C@@H](C)O)[C@@H](C)O)C(C)C)C(C)C)[C@@H](C)CC)C(C)C`: the LD is 2 µM in experiment [7], 1 µM in experiment [8] and 0.5 µM in [9].

With H-KWKLFKKIEKVGQNIRDGGIGAVLKV-OH, the LD in experiment [13] was determined as 1 µM; in experiment [14], 600 µM; in [15], 15 µM.

Regarding `CC[C@H](C)[C@H](NC(=O)CNC(=O)CCN)C(=O)NCC(=O)N[C@@H](CCCCN)C(=O)N[C@@H](Cc1ccccc1)C(=O)N[C@@H](CC(C)C)C(=O)N[C@@H](Cc1c[nH]cn1)C(=O)N[C@@H](C)C(=O)N[C@@H](C)C(=O)N[C@@H](CCCCN)C(=O)N[C@@H](CCCCN)C(=O)N[C@@H](Cc1ccccc1)C(=O)N[C@@H](C)C(=O)N[C@@H](CCCCN)C(=O)N[C@@H](C)C(=O)N[C@@H](Cc1ccccc1)C(=O)N[C@H](C(=O)N[C@@H](C)C(=O)N[C@@H](CCC(=O)O)C(=O)N[C@H](C(=O)N[C@@H](CCSC)C(=O)N[C@@H](CC(N)=O)C(=O)N[C@@H](CO)C(N)=O)[C@@H](C)CC)C(C)C` (H-[βAla]GIGKFLHAAKKFAKAFVAEIMNS-NH2), the MIC in experiment [10] worked out at 5 µg/mL; in experiment [11] it was 5 µg/mL; in experiment [12], 50 µg/mL.

As to `CC[C@H](C)[C@H](NC(=O)CN)C(=O)NCC(=O)N[C@@H](CCCCN)C(=O)N[C@@H](Cc1ccccc1)C(=O)N[C@@H](CC(C)C)C(=O)N[C@@H](Cc1c[nH]cn1)C(=O)N[C@@H](CO)C(=O)N[C@H](C)C(=O)N[C@@H](CCCCN)C(=O)N[C@@H](CCCCN)C(=O)N[C@@H](Cc1ccccc1)C(=O)N[C@H](C)C(=O)N[C@@H](CCCCN)C(=O)N[C@@H](C)C(=O)N[C@@H](Cc1ccccc1)C(=O)N[C@H](C(=O)N[C@H](C)C(=O)N[C@@H](CCC(=O)O)C(=O)N[C@H](C(=O)N[C@@H](CCSC)C(=O)N[C@@H](CC(N)=O)C(=O)N[C@@H](CO)C(N)=O)[C@@H](C)CC)C(C)C` (H-GIGKFLHS[dA]KKF[dA]KAFV[dA]EIMNS-NH2), the MIC in experiment [10], in experiment [11] and in experiment [12] was > 100 µg/mL in each case.

With H-KWKLFKKIGAVLKVL-OH, the LD in experiment [4] was found to be 4 µM; in [5] it was 1 µM; in [6] it was 2 µM.

With H-RRRRRRRRRRGIGKFLHSAKKFGKAFVGEIMNS-OH, the MIC in [1] was 6.25 µg/mL; in experiment [2] it was 25 µg/mL; in [3], 3.12 µg/mL.

On to H-KFLHSAKKFGKAFVGEIMNS-OH, for which the MIC result in experiment [16] and in experiment [17] was “inactive” throughout. Also, the minimal inhibitory concentration (MIC) in experiment [18] stood at 20 µg/mL.

Regarding H-FLHSAKKFGKAFVGEIMNS-OH, the MIC entry in experiment [16] and in experiment [17] was “inactive” each time. The MIC in [18] was 200 µg/mL.

In the case of H-KWKLFKKVLKVLTTG-OH, the LD in [4] was 2 µM; in experiment [5] it was 0.5 µM; in experiment [6], 8 µM.

For `CC[C@@H](C)[C@H](NC(=O)[C@@H](NC(=O)CNC(=O)[C@H](CC(=O)O)NC(=O)[C@H](CCCNC(=N)N)NC(=O)[C@@H](NC(=O)[C@H](CC(N)=O)NC(=O)[C@H](CCC(N)=O)NC(=O)CNC(=O)[C@@H](NC(=O)[C@H](CCCCN)NC(=O)[C@H](CCC(=O)O)NC(=O)[C@@H](NC(=O)[C@H](CCCCN)NC(=O)[C@H](CCCCN)NC(=O)[C@H](Cc1ccccc1)NC(=O)[C@H](CC(C)C)NC(=O)[C@H](CCCCN)NC(=O)[C@H](Cc1c[nH]c2ccccc12)NC(=O)[C@@H](N)CCCCN)[C@@H](C)CC)C(C)C)[C@@H](C)CC)[C@@H](C)CC)C(=O)N[C@@H](CCCCN)C(=O)N[C@@H](C)C(=O)NCC(=O)N1CCC[C@H]1C(=O)N[C@@H](C)C(=O)N[C@H](C(=O)N[C@@H](C)C(=O)N[C@H](C(=O)N[C@H](C(=O)NCC(=O)N[C@@H](CCC(N)=O)C(=O)N[C@@H](C)C(=O)N[C@H](C(=O)N[C@@H](CCC(N)=O)C(=O)N[C@H](C(=O)N[C@@H](C)C(=O)N[C@@H](CCCCN)C(=O)O)[C@@H](C)CC)[C@@H](C)O)C(C)C)C(C)C)C(C)C`, the LD was >200 µM in experiment [7], 2 µM in experiment [8] and 0.2 µM in experiment [9].

Regarding H-GIGKFLHAAKKFAKAFVAEIMNS-NH2, the minimum inhibitory concentration (MIC) amounted to 2.5 µg/mL in experiment [10], 10 µg/mL in experiment [11] and 25 µg/mL in [12].

With H-KWKLFKKIGIGAVLKVLK-OH, the LD was found to be 3 µM in experiment [4], 0.5 µM in experiment [5] and 7 µM in experiment [6].

Regarding H-GIGKFLHSAKKFGKAFVGEIMNSKKKKKKKKKK-OH, the MIC in [1] worked out at 3.1 µg/mL; in experiment [2], 3.1 µg/mL; in experiment [3], 50 µg/mL.

Turning to H-GIGKFLHSAKKFGKAFVGEIMNS-NH2, the results for the MIC in [16], in experiment [17] and in experiment [18] were > 256 µg/mL, 256 µg/mL and 128 µg/mL, respectively.

As for `CC[C@H](C)[C@H](NC(=O)CN)C(=O)NCC(=O)N[C@@H](C)C(=O)N[C@H](C(=O)N[C@@H](CC(C)C)C(=O)N[C@@H](CCCCN)C(=O)N[C@H](C(=O)N[C@@H](CC(C)C)C(=O)N[C@H](C(=O)N[C@H](C(=O)NCC(=O)N[C@@H](CC(C)C)C(=O)N1CCC[C@H]1C(=O)N[C@@H](C)C(=O)N[C@@H](CC(C)C)C(=O)N[C@H](C(=O)N[C@@H](CO)C(=O)N[C@@H](Cc1c[nH]c2ccccc12)C(=O)N[C@H](C(=O)N[C@@H](CCCCN)C(=O)N[C@@H](CCCNC(=N)N)C(=O)N[C@@H](CCCCN)C(=O)N[C@@H](CCCNC(=N)N)C(=O)N[C@@H](CCC(N)=O)C(=O)N[C@@H](CCC(N)=O)C(N)=O)[C@@H](C)CC)[C@@H](C)CC)[C@@H](C)O)[C@@H](C)O)C(C)C)C(C)C` [MELITTIN], the figures for the LD in experiment [7], in experiment [8] and in experiment [9] were 0.2 µM, 3 µM and 0.8 µM, respectively.

“H-GIGKFLHSAKKFGKAFVGEIMNS-OH [MAGAININ 2]”: the MIC was 50 µg/mL in experiment [1], 1 µg/mL in experiment [18], ≥ 100 µg/mL in [2] and 50 µg/mL in experiment [3]. Moreover, the MIC result in experiment [16] and in [17] was “inactive” each time.
